Measured values as given in ChEMBL document CHEMBL4507293 (2021).

How the values were obtained:
[1] = target: Citron Rho-interacting kinase (Homo sapiens) (UniProt O14578); details: Compound concentration 100.0 nM
[2] = target: Endothelin receptor type B (Homo sapiens) (UniProt P24530); details: Compound concentration 10.0 uM
[3] = target: Histamine H4 receptor (Homo sapiens) (UniProt Q9H3N8); assay: Histamine H4 Eurofins-Panlabs radioligand binding assay; details: Compound concentration 10.0 uM
[4] = target: 5-hydroxytryptamine receptor 3A (Homo sapiens) (UniProt P46098); assay: Inhibition of Serotonin (5-Hydroxytryptamine) 5-HT3 at 10 µM in the Eurofins-Panlabs radioligand binding assay (Eurofins_assay_271910); set-up: ligand concentration 0.69 nM; details: Compound concentration 10.0 uM
[5] = target: Sodium-dependent noradrenaline transporter (Homo sapiens) (UniProt P23975); details: Compound concentration 10.0 uM
Sodium-dependent noradrenaline transporter (Homo sapiens), sequence (P23975 whole entry): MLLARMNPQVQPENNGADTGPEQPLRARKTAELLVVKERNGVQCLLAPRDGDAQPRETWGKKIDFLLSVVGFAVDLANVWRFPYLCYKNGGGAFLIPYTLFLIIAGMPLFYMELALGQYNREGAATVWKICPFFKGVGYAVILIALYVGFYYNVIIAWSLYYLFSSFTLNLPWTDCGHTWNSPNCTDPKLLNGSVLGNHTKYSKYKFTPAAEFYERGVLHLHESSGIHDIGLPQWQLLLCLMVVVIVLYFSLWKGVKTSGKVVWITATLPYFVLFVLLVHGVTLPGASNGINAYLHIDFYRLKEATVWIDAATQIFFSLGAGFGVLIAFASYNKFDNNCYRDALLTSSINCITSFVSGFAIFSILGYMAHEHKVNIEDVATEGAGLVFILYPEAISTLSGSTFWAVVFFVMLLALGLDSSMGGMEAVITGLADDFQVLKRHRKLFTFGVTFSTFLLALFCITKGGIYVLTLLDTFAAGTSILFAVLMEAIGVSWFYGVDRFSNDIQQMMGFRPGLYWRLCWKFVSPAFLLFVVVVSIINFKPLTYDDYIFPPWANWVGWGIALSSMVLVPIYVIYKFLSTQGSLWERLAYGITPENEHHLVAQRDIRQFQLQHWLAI

[6] = target: Sodium-dependent dopamine transporter (Homo sapiens) (UniProt Q01959); details: Compound concentration 10.0 uM
[7] = target: 5-hydroxytryptamine receptor 2B (Homo sapiens) (UniProt P41595); details: Compound concentration 10.0 uM
Homo sapiens [8] = species on record: Homo sapiens; assay: Prostanoid, Thromboxane A2 (TP) Eurofins-Panlabs radioligand binding assay; set-up: ligand concentration 5 nM, non-specific ligand with concentration 1 µM SQ-29548, incubation time 30 min, incubation temperature 25 °C; details: Compound concentration 10.0 uM
[9] = target: Glutamate NMDA receptor (Rattus norvegicus) (UniProt P35439+Q00959+Q00960+Q00961+Q62645+Q8VHN2+Q9R1M7); details: Compound concentration 10.0 uM
[10] = target: Cholecystokinin receptor type A (Homo sapiens) (UniProt P32238); assay: Inhibition of Cholecystokinin CCK1 (CCKA) at 10 µM in the Eurofins-Panlabs radioligand binding assay (Eurofins_assay_218020); details: Compound concentration 10.0 uM
[11] = target: Rod cGMP-specific 3',5'-cyclic phosphodiesterase subunit alpha (Homo sapiens, UniProt P16499); assay: Biochemical assay (PDE6A)
Rod cGMP-specific 3',5'-cyclic phosphodiesterase subunit alpha, sequence (P16499 whole entry): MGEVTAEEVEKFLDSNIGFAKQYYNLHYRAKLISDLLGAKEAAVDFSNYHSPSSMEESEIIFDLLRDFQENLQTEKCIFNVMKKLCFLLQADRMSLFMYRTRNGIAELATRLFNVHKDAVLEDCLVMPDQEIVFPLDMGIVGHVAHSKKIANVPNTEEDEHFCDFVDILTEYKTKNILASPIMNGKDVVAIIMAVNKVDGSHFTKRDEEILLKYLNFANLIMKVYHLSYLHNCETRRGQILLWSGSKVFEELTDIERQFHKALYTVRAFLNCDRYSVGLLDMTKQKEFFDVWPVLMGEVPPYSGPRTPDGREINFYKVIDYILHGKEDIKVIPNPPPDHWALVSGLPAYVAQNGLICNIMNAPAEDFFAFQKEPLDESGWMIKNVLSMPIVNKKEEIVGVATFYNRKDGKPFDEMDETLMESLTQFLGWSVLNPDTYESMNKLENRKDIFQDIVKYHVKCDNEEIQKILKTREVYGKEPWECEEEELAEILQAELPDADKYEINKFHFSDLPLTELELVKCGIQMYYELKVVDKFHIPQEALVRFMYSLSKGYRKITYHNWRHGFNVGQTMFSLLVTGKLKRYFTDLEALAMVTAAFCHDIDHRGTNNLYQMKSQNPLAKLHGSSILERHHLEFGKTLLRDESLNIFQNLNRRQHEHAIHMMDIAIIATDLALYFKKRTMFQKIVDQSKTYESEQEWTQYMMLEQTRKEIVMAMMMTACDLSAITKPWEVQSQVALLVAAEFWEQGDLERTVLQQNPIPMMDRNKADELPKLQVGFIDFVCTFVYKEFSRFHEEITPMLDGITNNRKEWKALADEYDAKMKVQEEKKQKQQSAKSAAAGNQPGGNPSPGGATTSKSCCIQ

[12] = target: Substance-K receptor (Homo sapiens) (UniProt P21452); assay: Inhibition of Tachykinin NK2 at 10 µM in the Eurofins-Panlabs radioligand binding assay (Eurofins_assay_255600); set-up: ligand concentration 0.5 nM; details: Compound concentration 10.0 uM
[13] = target: Glucocorticoid receptor (Homo sapiens) (UniProt P04150); assay: Glucocorticoid Eurofins-Panlabs radioligand binding assay; details: Compound concentration 10.0 uM
[14] = target: Neurotensin receptor type 1 (Homo sapiens) (UniProt P30989); assay: Neurotensin NT1 Eurofins-Panlabs radioligand binding assay; set-up: ligand concentration 0.02 nM, non-specific ligand with concentration 1 µM Neurotensin, incubation time 45 min, incubation temperature 25 °C; details: Compound concentration 10.0 uM
[15] = target: T1, Muscarinic acetylcholine receptor M5 (Homo sapiens) (UniProt P08912); assay: Inhibition of Muscarinic M5 at 10 µM in the Eurofins-Panlabs radioligand binding assay (Eurofins_assay_253010); set-up: ligand concentration 0.8 nM; details: Compound concentration 10.0 uM
T1 sequence (whole entry): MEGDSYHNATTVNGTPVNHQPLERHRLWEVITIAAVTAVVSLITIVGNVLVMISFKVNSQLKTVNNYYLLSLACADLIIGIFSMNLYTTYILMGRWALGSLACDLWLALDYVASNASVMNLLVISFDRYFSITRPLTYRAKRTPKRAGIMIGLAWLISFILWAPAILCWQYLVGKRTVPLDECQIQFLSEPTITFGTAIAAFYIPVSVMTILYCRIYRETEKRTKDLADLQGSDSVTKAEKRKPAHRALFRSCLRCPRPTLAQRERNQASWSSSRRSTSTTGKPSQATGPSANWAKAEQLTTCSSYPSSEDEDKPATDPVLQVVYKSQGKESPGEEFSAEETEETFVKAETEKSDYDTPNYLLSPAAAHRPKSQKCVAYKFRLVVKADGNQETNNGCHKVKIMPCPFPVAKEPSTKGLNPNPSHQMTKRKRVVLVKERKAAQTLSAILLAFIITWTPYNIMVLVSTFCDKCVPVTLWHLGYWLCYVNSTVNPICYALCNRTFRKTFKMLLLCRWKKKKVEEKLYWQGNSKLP

[16] = target: Cannabinoid receptor 2 (Homo sapiens) (UniProt P34972); details: Compound concentration 10.0 uM
[17] = target: Vasopressin V2 receptor (Homo sapiens) (UniProt P30518); assay: Inhibition of Vasopressin V2 at 10 µM in the Eurofins-Panlabs radioligand binding assay (Eurofins_assay_287610); set-up: ligand concentration 4 nM; details: Compound concentration 10.0 uM
Bos taurus = species on record: Bos taurus; assay: Protein Serine/Threonine Kinase, PKA, Non-Selective Eurofins-Panlabs enzyme assay; type: protein-complex assay; set-up: substrate with concentration 370 µg/mL Histone Type III-S, incubation time 15 min, incubation temperature 25 °C; details: Compound concentration 10.0 uM
[18] = target: Endothelin-1 receptor (Homo sapiens) (UniProt P25101); details: Compound concentration 10.0 uM
[19] = target: Kappa-type opioid receptor (Homo sapiens) (UniProt P41145); details: Compound concentration 10.0 uM
Kappa-type opioid receptor (Homo sapiens), sequence (P41145 whole entry): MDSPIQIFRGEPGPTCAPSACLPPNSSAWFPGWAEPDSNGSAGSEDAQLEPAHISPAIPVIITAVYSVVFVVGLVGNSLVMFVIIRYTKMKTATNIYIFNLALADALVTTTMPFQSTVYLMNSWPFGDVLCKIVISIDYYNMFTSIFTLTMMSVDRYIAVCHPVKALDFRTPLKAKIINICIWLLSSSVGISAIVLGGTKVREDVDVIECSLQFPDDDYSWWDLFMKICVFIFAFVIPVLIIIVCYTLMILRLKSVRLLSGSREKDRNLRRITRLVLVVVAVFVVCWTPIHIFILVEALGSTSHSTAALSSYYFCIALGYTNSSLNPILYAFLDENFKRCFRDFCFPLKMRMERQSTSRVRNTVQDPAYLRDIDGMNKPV

[20] = target: High affinity choline transporter 1 (Homo sapiens) (UniProt Q9GZV3); assay: Transporter, Choline Eurofins-Panlabs radioligand binding assay; set-up: ligand concentration 0.75 nM; details: Rattus norvegicus; Compound concentration 10.0 uM
[21] = target: Tyrosine 3-monooxygenase (Homo sapiens) (UniProt P07101); assay: Tyrosine Hydroxylase Eurofins-Panlabs enzyme assay; set-up: substrate with concentration; details: Rattus norvegicus; Compound concentration 10.0 uM
[22] = target: Beta-2 adrenergic receptor (Homo sapiens) (UniProt P07550); details: Compound concentration 10.0 uM
[23] = target: Corticotropin-releasing factor receptor 1 (Homo sapiens) (UniProt P34998); assay: Corticotropin Releasing Factor CRF1 Eurofins-Panlabs radioligand binding assay; details: Compound concentration 10.0 uM
[24] = target: Sodium-dependent serotonin transporter (Homo sapiens) (UniProt P31645); details: Compound concentration 10.0 uM
Sodium-dependent serotonin transporter (Homo sapiens), sequence (P31645 whole entry, looked up): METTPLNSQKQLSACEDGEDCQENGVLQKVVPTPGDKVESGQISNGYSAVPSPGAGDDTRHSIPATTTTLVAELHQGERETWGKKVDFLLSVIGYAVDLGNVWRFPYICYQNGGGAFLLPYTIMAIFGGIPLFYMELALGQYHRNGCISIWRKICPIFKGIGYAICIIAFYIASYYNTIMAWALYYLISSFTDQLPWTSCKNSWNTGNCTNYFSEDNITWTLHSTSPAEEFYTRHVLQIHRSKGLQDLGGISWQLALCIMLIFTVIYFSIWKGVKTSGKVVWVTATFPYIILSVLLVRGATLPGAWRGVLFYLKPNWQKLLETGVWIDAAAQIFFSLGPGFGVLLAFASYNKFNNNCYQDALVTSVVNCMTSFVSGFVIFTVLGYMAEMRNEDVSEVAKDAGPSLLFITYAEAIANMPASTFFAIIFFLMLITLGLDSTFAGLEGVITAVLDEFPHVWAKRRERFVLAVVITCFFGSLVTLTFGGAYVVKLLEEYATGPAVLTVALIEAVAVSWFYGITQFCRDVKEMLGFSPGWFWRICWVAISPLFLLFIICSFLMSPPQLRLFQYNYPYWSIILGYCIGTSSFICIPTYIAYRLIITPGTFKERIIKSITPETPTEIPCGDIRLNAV

[25] = target: 5-hydroxytryptamine receptor 6 (Homo sapiens) (UniProt P50406); assay: Inhibition of Serotonin (5-Hydroxytryptamine) 5-HT6 at 10 µM in the Eurofins-Panlabs radioligand binding assay (Eurofins_assay_272200); details: Compound concentration 10.0 uM
Rattus norvegicus [26] = species on record: Rattus norvegicus; assay: Glutamate, NMDA, Polyamine Eurofins-Panlabs radioligand binding assay; type: protein-complex assay; set-up: ligand concentration 2 nM; details: Compound concentration 10.0 uM
[27] = target: B2 bradykinin receptor (Homo sapiens) (UniProt P30411); assay: Bradykinin B2 Eurofins-Panlabs radioligand binding assay; details: Compound concentration 10.0 uM
B2 bradykinin receptor (Homo sapiens), sequence (P30411 whole entry): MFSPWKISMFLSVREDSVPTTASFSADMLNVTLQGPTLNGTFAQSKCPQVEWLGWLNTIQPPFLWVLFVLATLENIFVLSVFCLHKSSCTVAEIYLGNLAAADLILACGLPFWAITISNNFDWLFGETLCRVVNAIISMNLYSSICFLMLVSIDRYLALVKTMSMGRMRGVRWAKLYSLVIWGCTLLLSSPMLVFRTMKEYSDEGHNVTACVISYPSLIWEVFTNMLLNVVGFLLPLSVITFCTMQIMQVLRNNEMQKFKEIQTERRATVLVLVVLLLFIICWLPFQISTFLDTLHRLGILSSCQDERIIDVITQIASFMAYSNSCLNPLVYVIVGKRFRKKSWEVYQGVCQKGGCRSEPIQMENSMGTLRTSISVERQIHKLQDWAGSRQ

[28] = target: Prostaglandin F2-alpha receptor (Homo sapiens) (UniProt P43088); assay: Prostanoid FP Eurofins-Panlabs radioligand binding assay; set-up: ligand concentration 0.95 nM; details: Compound concentration 10.0 uM
Homo sapiens [29] = species on record: Homo sapiens; assay: Glutamate, Metabotropic, mGlu5 Eurofins-Panlabs radioligand binding assay; details: Compound concentration 10.0 uM
[30] = target: Melanocyte-stimulating hormone receptor (Homo sapiens) (UniProt Q01726); assay: Melanocortin MC1 Eurofins-Panlabs radioligand binding assay; details: Compound concentration 10.0 uM
[31] = target: Melanocortin receptor 4 (Homo sapiens) (UniProt P32245); assay: Inhibition of Melanocortin MC4 at 10 µM in the Eurofins-Panlabs radioligand binding assay (Eurofins_assay_251350); set-up: ligand concentration 0.02 nM; details: Compound concentration 10.0 uM
[32] = target: B1 bradykinin receptor (Homo sapiens) (UniProt P46663); assay: Inhibition of Bradykinin B1 at 10 µM in the Eurofins-Panlabs radioligand binding assay (Eurofins_assay_212510); details: Compound concentration 10.0 uM
Rattus norvegicus [33] = species on record: Rattus norvegicus; assay: Protein Serine/Threonine Kinase, PKC, Non-Selective Eurofins-Panlabs enzyme assay; details: Compound concentration 10.0 uM
[34] = target: C-C chemokine receptor type 1 (Homo sapiens) (UniProt P32246); assay: Chemokine CCR1 Eurofins-Panlabs radioligand binding assay; details: Compound concentration 10.0 uM

Citron Rho-interacting kinase (Homo sapiens), sequence (O14578 whole entry): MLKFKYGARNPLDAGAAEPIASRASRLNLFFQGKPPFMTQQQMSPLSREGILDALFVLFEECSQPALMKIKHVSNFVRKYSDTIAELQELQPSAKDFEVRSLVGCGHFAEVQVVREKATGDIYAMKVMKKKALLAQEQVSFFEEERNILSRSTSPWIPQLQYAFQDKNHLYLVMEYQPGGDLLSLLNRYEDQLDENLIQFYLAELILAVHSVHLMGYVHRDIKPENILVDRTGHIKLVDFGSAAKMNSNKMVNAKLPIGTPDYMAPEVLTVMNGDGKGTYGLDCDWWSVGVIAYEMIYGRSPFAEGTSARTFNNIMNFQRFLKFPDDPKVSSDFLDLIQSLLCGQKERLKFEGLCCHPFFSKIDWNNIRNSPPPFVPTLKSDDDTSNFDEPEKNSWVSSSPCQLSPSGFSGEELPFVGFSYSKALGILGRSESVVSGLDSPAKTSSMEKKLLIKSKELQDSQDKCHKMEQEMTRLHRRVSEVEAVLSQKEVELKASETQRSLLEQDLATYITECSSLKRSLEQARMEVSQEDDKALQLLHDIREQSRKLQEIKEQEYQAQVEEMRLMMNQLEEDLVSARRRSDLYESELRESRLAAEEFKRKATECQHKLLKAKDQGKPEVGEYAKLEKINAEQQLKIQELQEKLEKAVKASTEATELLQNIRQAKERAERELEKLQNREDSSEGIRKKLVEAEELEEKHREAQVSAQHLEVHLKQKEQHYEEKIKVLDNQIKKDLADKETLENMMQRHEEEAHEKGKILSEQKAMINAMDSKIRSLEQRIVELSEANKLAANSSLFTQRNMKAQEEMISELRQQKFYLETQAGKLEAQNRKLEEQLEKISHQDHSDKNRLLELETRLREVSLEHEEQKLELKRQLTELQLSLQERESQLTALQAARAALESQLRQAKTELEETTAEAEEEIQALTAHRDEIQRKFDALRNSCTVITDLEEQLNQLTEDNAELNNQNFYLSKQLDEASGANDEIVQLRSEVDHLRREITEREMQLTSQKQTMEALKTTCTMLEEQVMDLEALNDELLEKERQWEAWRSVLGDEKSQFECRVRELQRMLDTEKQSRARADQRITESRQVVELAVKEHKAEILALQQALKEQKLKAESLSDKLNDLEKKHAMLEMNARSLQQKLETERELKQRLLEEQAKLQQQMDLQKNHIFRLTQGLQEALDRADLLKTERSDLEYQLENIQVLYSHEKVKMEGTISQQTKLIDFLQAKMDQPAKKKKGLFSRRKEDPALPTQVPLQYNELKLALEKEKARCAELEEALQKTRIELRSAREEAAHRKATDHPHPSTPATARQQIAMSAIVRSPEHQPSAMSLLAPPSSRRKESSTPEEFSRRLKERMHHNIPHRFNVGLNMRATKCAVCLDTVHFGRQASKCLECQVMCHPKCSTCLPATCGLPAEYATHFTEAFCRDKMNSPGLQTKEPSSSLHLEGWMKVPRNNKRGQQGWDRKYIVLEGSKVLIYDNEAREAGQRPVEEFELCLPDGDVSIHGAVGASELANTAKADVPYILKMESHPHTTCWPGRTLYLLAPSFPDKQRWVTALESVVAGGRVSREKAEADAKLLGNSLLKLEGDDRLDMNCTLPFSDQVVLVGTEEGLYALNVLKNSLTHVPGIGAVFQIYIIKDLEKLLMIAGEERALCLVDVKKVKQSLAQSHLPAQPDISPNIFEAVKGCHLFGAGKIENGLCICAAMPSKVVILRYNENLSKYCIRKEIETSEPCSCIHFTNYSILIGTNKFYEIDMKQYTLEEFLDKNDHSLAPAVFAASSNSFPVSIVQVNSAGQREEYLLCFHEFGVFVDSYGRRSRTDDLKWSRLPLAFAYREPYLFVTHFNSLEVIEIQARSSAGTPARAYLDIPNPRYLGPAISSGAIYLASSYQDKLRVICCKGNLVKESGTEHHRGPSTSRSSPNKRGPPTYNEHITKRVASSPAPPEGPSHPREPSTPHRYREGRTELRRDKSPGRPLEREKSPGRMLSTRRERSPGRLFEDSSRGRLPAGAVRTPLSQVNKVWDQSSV

With `CC(C)CC(=O)N1CCc2nc(-c3ccc(Br)cc3)nc(N(C)Cc3ccccc3)c2C1` [THPP-1-NC] the residual activity [1] was 100%.

Work on `COCCOc1nc(-c2ccc(Cl)nc2)nc2c1CN(C(=O)c1ncn3ccccc13)CC2` [THPP-1] yielded an inhibition [2] of 0%, an inhibition [3] of 1% and an inhibition [4] of -8%. The inhibition [5] was -6.81%, the inhibition [6] was -3% and the inhibition [7] was -1%. For the same compound, the inhibition (Homo sapiens [8]) was 8%, the inhibition [9] was 0% and the inhibition [10] was 5%. The Ki [11] was 44 nM, the inhibition [12] was 18% and the inhibition [13] was -6%. It also gave an inhibition [14] of 10%, an inhibition [15] of 1% and an inhibition [16] of 28%. It also gave an inhibition [17] of -2%, an inhibition (Bos taurus) of -7% and an inhibition [18] of 1%. For the same compound, the inhibition [19] was 2%, the inhibition [20] was 9% and the inhibition [21] was 4%. For the same compound, the inhibition [22] was -4%, the inhibition [23] was 12% and the inhibition [24] was 2.72%. For the same compound, the inhibition [25] was 5%, the inhibition (Rattus norvegicus [26]) was 11% and the inhibition [27] was 13%. For the same compound, the inhibition [28] was 22%, the inhibition (Homo sapiens [29]) was 22% and the inhibition [30] was 23%. It also gave an inhibition [31] of 8%, an inhibition [32] of 28% and an inhibition (Rattus norvegicus [33]) of 12%. It also gave an inhibition [34] of 11%.
